In PubChem BioAssay AID1996:
≈ marks a conversion by molar mass, not a printed value.

Settings: buffer; pH 7.4; 200.0 µM

Row | solubility kinetic | Compound
1 | 37.1 µg/mL (≈ 136 µM) | COC(=O)Cn1cc(C(=O)C(C)(C)C)c2ccccc21
2 | 49.4 µg/mL (≈ 140 µM) | O=C1CC(N2CCN(c3ccc(F)cc3)CC2)C(=O)N1c1ccccc1 (stereo unspecified)
3 | 42.4 µg/mL (≈ 126 µM) | O=C(NCc1ccco1)/C(=C/c1ccccc1)NC(=O)c1ccco1
4 | > 49 µg/mL | NC(=O)c1ccc(C2SCC(=O)N2CCc2ccccc2)cc1 (stereo unspecified)
5 | > 46.1 µg/mL | CSc1ccccc1C(=O)OCC(=O)N1CCCCCC1
6 | 63.9 µg/mL (≈ 149 µM) | CC1CCN(C(=O)c2ccccc2NC(=O)c2cccc(S(=O)(=O)N(C)C)c2)CC1
7 | > 54.3 µg/mL | Cc1ccc(C(=O)NCCCNC(=O)COc2ccccc2Cl)cn1
8 | 41.5 µg/mL (≈ 146 µM) | O=C(/C=C/c1ccco1)NCC1OCCc2ccccc21 (stereo unspecified)
9 | > 44.9 µg/mL | COc1ccc(OC(C)C(=O)NC(C)c2ccccc2)cc1 (stereo unspecified)
10 | > 45.7 µg/mL | O=S(=O)(c1ccc(SCCO)nc1)N1CCOCC1
11 | > 48.4 µg/mL | CC1=C(C)CC(C(=O)NCCCN2CCCC2=O)C(C(=O)O)C1 (stereo unspecified)
12 | 33.5 µg/mL (≈ 147 µM) | Cc1ccc2[nH]c(C(F)(F)F)cc(=O)c2c1
13 | 0.7 µg/mL (≈ 2.19 µM) | COc1ccc(CC(=O)NC(C)c2ccc3ccccc3c2)cc1 (stereo unspecified)
14 | 10 µg/mL (≈ 35.2 µM) | N#C/C(=C\c1cccnc1)C(=O)Nc1cccc(Cl)c1
15 | 30 µg/mL (≈ 112 µM) | O=S(=O)(NC1CCCCCCC1)c1ccccc1
16 | > 56.7 µg/mL | COC(=O)CNC(=O)CCc1nnc(C2(c3ccc(Cl)cc3)CCC2)o1
17 | 2.6 µg/mL (≈ 10.8 µM) | COc1cccc2cc(-c3ccnc(N)n3)oc12
18 | > 40.7 µg/mL | CC(C)CNC(=O)C(=O)NCCCN1CCOCC1
19 | > 40.9 µg/mL | COc1ccc(CNC(=S)Nc2ccccc2)cc1
20 | > 39.8 µg/mL | C=CCNC(=O)c1ccccc1CCc1ccccc1

Row | solubility kinetic | Compound
21 | 8.3 µg/mL (≈ 27.3 µM) | O=C(NC1CCCc2ccccc21)c1c(F)cccc1Cl (stereo unspecified)
22 | 2.6 µg/mL (≈ 10 µM) | CC(C)c1ccc(C(C)NC(=O)C2CCCC2)cc1 (stereo unspecified)
23 | 4.9 µg/mL (≈ 15.7 µM) | Cc1ccc(NC(=O)CN(C)C(=O)Nc2ccc(C)cc2)cc1
24 | 40.8 µg/mL (≈ 105 µM) | COc1ccc(OC)c(NC(=O)COC(=O)CCNc2ccccc2OC)c1
25 | 47.5 µg/mL (≈ 144 µM) | CN(CC(=O)N1CCCCC1)S(=O)(=O)c1ccc(Cl)cc1
26 | < 0.2 µg/mL | Clc1cnc2nc(SC/C=C/c3ccccc3)[nH]c2c1
27 | > 48.7 µg/mL | COc1ccccc1NC(=O)CCN1C(=O)c2ccccc2C1=O
28 | 0.7 µg/mL (≈ 2.35 µM) | COc1ccc2[nH]c(C(=O)Nc3ccc(C)c(F)c3)cc2c1
29 | 29.8 µg/mL (≈ 120 µM) | O=C(Nc1ccc2ccccc2n1)c1ccccc1
30 | 7.7 µg/mL (≈ 27.2 µM) | CS(=O)(=O)N1c2cccc3cccc(c23)S1(=O)=O
31 | 2.6 µg/mL (≈ 9.91 µM) | N#Cc1ccc(C(=O)Nc2nc3ccccc3[nH]2)cc1
32 | 1.5 µg/mL (≈ 4.42 µM) | Cc1ccc2[nH]c(=O)cc(C(=O)OCC(=O)c3ccc(F)cc3)c2c1
33 | 16.5 µg/mL (≈ 66.5 µM) | O=C(Nc1ccncc1)c1ccc2ccccc2c1
34 | > 47.4 µg/mL | COc1ccc(Cl)cc1NS(=O)(=O)c1cn(C)nc1C
35 | 1.8 µg/mL (≈ 5.43 µM) | Cc1cccc(NC(=O)c2ccccc2NC(=O)c2ccccc2)n1
36 | 3.4 µg/mL (≈ 9.78 µM) | O=C(NCc1ccco1)C1CCCN1C(=O)Nc1ccc(Cl)cc1 (stereo unspecified)
37 | 18.2 µg/mL (≈ 51.1 µM) | CN(C)S(=O)(=O)NCCNc1ccc(C(F)(F)F)cc1[N+](=O)[O-]
38 | 32.9 µg/mL (≈ 98.7 µM) | O=C(c1cc2ccccc2cc1O)N1CCN(c2ccccn2)CC1
39 | 33 µg/mL (≈ 116 µM) | CCOc1ccc(N=CNc2ccc(OCC)cc2)cc1
40 | > 39.1 µg/mL | CCC(C(=O)NC1CCN(C)CC1)c1ccccc1 (stereo unspecified)

Row | solubility kinetic | Compound
41 | > 37 µg/mL | O=C(NCc1ccccc1Cl)c1ccncc1
42 | 9 µg/mL (≈ 33.2 µM) | COc1ccc(C(=O)O/N=C(\C)c2cnccn2)cc1
43 | 17.8 µg/mL (≈ 45.9 µM) | CN(CC(=O)Nc1cccc(S(=O)(=O)N2CCCC2)c1)Cc1ccccc1
44 | 1.8 µg/mL (≈ 5.53 µM) | COc1ccc(-c2csc(NC(=O)Nc3ccccc3)n2)cc1
45 | > 45.5 µg/mL | COc1ccc(C(C)=O)cc1Cn1nc(C)c([N+](=O)[O-])c1C
46 | 29.4 µg/mL (≈ 107 µM) | Cc1cc(C)c(C)c(OCCCCN2CCCCC2)c1
47 | 5.9 µg/mL | Cc1ccc(Nc2nc(N)c3ccccc3n2)cc1C.Cl
48 | 36.6 µg/mL (≈ 107 µM) | Cc1ccc(NC(=O)C2CCN(C(=O)c3cccs3)CC2)c(C)c1
49 | 41.6 µg/mL (≈ 144 µM) | CC(=O)c1c(C)[nH]c(C(=O)NCc2ccccc2F)c1C
50 | 39.5 µg/mL (≈ 139 µM) | O=C(CN1C(=O)c2ccccc2C1=O)c1ccc(F)cc1
51 | > 48.7 µg/mL | O=C(O)c1ccc(NC2CC(=O)N(Cc3ccccc3)C2=O)cc1 (stereo unspecified)
52 | 4.8 µg/mL (≈ 13.8 µM) | COc1ccc(OC2CCN(S(=O)(=O)c3ccccc3)CC2)cc1
53 | > 42.2 µg/mL | O=C(CCc1c[nH]c2ccccc12)Nc1ncccc1O
54 | 41.8 µg/mL (≈ 120 µM) | CCN(CC)c1ccc(N)cc1S(=O)(=O)Nc1ccccc1OC
55 | > 46.1 µg/mL | O=C1Nc2ccc([N+](=O)[O-])cc2OC1CCN1CCOCC1 (stereo unspecified)
56 | 10.4 µg/mL (≈ 34.1 µM) | O=C(NCCOC(=O)c1ccc(F)cc1)c1ccc(F)cc1
57 | 1.6 µg/mL (≈ 5.02 µM) | CCC(NC(=S)NC1CCCCC1)c1ccc(C(C)C)cc1 (stereo unspecified)
58 | 0.9 µg/mL (≈ 3.25 µM) | Nc1cc(N2CCCCCC2)c2nonc2c1[N+](=O)[O-]
59 | > 42.5 µg/mL | N#Cc1c(-c2ccc(F)cc2)ccnc1N1CCOCC1

Row | Compound | solubility kinetic
60 | O=c1c2ccccc2nc(-c2ccccc2Cl)n1-c1ccc(O)cc1 | > 52.3 µg/mL
61 | COc1ccc(OC)c(CN2CCCC(C(=O)c3sccc3C)C2)c1 (stereo unspecified) | > 53.9 µg/mL
